Laboratory results: US20150359220A1, “COMPOSITIONS COMPRISING GOUGEROTIN AND A FUNGICIDE” (BAYER CROPSCIENCE LP, priority 2013, published 2015)
Structures can show the parent of a compound that is named as a salt. Where two headings read alike, the source gives them in different places.

Columns and labels:
Alternaria solani = test: Alternaria test (tomatoes)/preventive; type: in vivo; details: 3 days after inoculation
Phytophthora infestans = test: whole plant or invertebrate; type: in vivo; details: for Efficacy in % found: 3 days after inoculation
Sphaerotheca fuliginea = test: Sphaerotheca test (cucumbers)/preventive; type: in vivo
Venturia inaequalis = test: Venturia test (apples)/preventive; details: for Efficacy in % found: 10 days after inoculation
Experimental: After the spray coating has dried on, the plants are inoculated with an aqueous conidia suspension of the causal agent of apple scab (Venturia inaequalis) and then remain for 1 day in an incubation cabinet at approximately 20° C. and a relative atmospheric humidity of 100%. The plants are then placed in a greenhouse at approximately 21° C. and a relative atmospheric humidity of approximately 90%.
The test is evaluated 10 days after the inoculation.

[1] = tested on: Blumeria graminis fsp. hordei; test: Blumeria test (barley)/preventive; type: in vivo; details: 7 days after inoculation
Puccinia triticina = test: Puccinia triticina-test (wheat)/preventive; type: in vivo; details: 8 days after inoculation
Pyrenophora teres = test: Pyrenophora teres-test (barley)/preventive; type: in vivo; details: 8 days after inoculation
Septoria tritici = test: Septoria tritici-test (wheat)/preventive; type: in vivo; details: 21 days after inoculation
Botrytis cinerea = test: Botrytis test (beans)/preventive; details: Table 7, size of lesions 2 days after inoculation
Experimental: After the spray coating has dried on, 2 small pieces of agar covered with growth of Botrytis cinerea are placed on each leaf. The inoculated plants are placed in a darkened chamber at 20° C. and a relative atmospheric humidity of 100%.
2 days after the inoculation, the size of the lesions on the leaves is evaluated.

[2] = tested on: gram-positive, gram-negative bacteria and tubercule bacillus; details: according to U.S. Pat. No. 3,849,398; cited from earlier work
[3] = tested on: parasites on animals, such as pin worm; details: according to U.S. Pat. No. 3,849,398; cited from earlier work
[4] = Table 18, 100 ppm a.i., 7 days after inoculation
[5] = Phytophthora infestans, topical, 72 h, read-out: Efficacy in % found
[6] = Venturia inaequalis, 240 h, read-out: Efficacy in % found
[7] = Table 19, 20 ppm a.i., 7 days after inoculation
[8] = Alternaria solani, topical, 72 h, Table 2, 2 ppm a.i., read-out: Efficacy in % found
[9] = Podosphaera fuliginea, 168 h, Table 19, 1 ppm a.i., 7 days after inoculation, read-out: Efficacy in % found
[10] = Table 18, 0.5 ppm a.i., 7 days after inoculation
[11] = Podosphaera fuliginea, 168 h, Table 20, 100 ppm a.i., 7 days after inoculation, read-out: Efficacy in % found
[12] = Alternaria solani, topical, 72 h, Table 4, 50 ppm a.i., read-out: Efficacy in % found

fosetyl-aluminium [F281]
Efficacy in % found (Alternaria solani; Table 3, 50 ppm a.i.): 15%
Efficacy in % found (Phytophthora infestans; Table 10, 50 ppm a.i.): 55%
Efficacy in % found (Sphaerotheca fuliginea; [4]): 13%
Efficacy in % found (Venturia inaequalis; Table 22, 50 ppm a.i.): 0%

CCCOC(=O)NCCCN(C)C [F220, propamocarb hydrochloride]
pest or weed control at 250 ppm (Alternaria solani; Alternaria solani, topical, 72 h, Table 4, 250 ppm a.i., read-out: Efficacy in % found): 12%
pest or weed control at 500 ppm (Phytophthora infestans; [5]): 7%
pest or weed control at 500 ppm (Sphaerotheca fuliginea; Podosphaera fuliginea, 168 h, Table 20, 500 ppm a.i., 7 days after inoculation, read-out: Efficacy in % found): 10%
pest or weed control at 250 ppm (Venturia inaequalis; [6]): 0%

COCC(=O)N(c1c(C)cccc1C)C(C)C(=O)OC (stereo not shown) [F241, metalaxyl]
Efficacy in % found (Venturia inaequalis; Table 22, 50 ppm a.i.): 0%

Cn1cc(C(=O)Nc2ccccc2-c2cc(F)c(F)c(F)c2)c(C(F)F)n1 [F72, fluxapyroxad]
Efficacy in % found (Alternaria solani; Table 2, 0.5 ppm a.i.): 45%
Efficacy in % found ([1]; Table 5, 31.25 ppm a.i.): 0%
Efficacy in % found (Phytophthora infestans; Table 9, 100 ppm a.i.): 0%
Efficacy in % found (Puccinia triticina; Table 12, 15.625 ppm a.i.): 22%
Efficacy in % found (Puccinia triticina; Table 12, 31.25 ppm a.i.): 22%
Efficacy in % found (Pyrenophora teres; Table 15, 15.625 ppm a.i.): 80%
Efficacy in % found (Pyrenophora teres; Table 15, 31.25 ppm a.i.): 90%
Efficacy in % found (Septoria tritici; Table 16, 31.25 ppm a.i.): 13%
Efficacy in % found (Venturia inaequalis; Table 21, 0.25 ppm a.i.): 0%

mancozeb [F174]
Efficacy in % found (Phytophthora infestans; Table 11, 20 ppm a.i.): 0%
Efficacy in % found (Sphaerotheca fuliginea; [7]): 0%
Efficacy in % found (Venturia inaequalis; Table 23, 10 ppm a.i.): 0%

O=C(NCCc1ncc(C(F)(F)F)cc1Cl)c1ccccc1C(F)(F)F [F70, fluopyram]
Efficacy in % found (Alternaria solani; Table 2, 2 ppm a.i.): 40%
Efficacy in % found ([1]; Table 5, 31.25 ppm a.i.): 0%
Efficacy in % found ([1]; Table 5, 62.5 ppm a.i.): 0%
Efficacy in % found (Pyrenophora teres; Table 15, 31.25 ppm a.i.): 60%
Efficacy in % found (Pyrenophora teres; Table 15, 62.5 ppm a.i.): 80%
Efficacy in % found (Septoria tritici; Table 16, 62.5 ppm a.i.): 0%
Efficacy in % found (Sphaerotheca fuliginea; Table 19, 1 ppm a.i., 7 days after inoculation): 0%
Efficacy in % found (Venturia inaequalis; Table 21, 1 ppm a.i.): 0%

CC1COC(Cn2cncn2)(c2ccc(Oc3ccc(Cl)cc3)cc2Cl)O1 (stereo not shown) [F7, difenoconazole]
pest or weed control at 2 ppm (Alternaria solani; [8]): 30%
Efficacy in % found ([1]; Table 6, 62.5 ppm a.i.): 44%
Efficacy in % found ([1]; Table 6, 125 ppm a.i.): 67%
pest or weed control at 100 ppm (Phytophthora infestans; [5]): 0%
Efficacy in % found (Puccinia triticina; Table 13, 31.25 ppm a.i.): 30%
Efficacy in % found (Puccinia triticina; Table 13, 62.5 ppm a.i.): 60%
pest or weed control at 1 ppm (Sphaerotheca fuliginea; [9]): 0%
pest or weed control at 1 ppm (Venturia inaequalis; [6]): 38%

O=C(NCc1ncc(C(F)(F)F)cc1Cl)c1c(Cl)cccc1Cl [F143, fluopicolide]
Efficacy in % found (Phytophthora infestans; Table 10, 5 ppm a.i.): 21%
Efficacy in % found (Venturia inaequalis; Table 22, 50 ppm a.i.): 0%

phosphorous acid and its salts [F298]
Efficacy in % found (Phytophthora infestans; Table 10, 500 ppm a.i.): 76%
Efficacy in % found (Venturia inaequalis; Table 22, 50 ppm a.i.): 0%

CON=C(C(=O)OC)c1ccccc1CON=C(C)c1cccc(C(F)(F)F)c1 [F126, trifloxystrobin]
Efficacy in % found (Alternaria solani; Table 3, 2 ppm a.i.): 47%
Efficacy in % found ([1]; Table 5, 15.625 ppm a.i.): 50%
Efficacy in % found ([1]; Table 5, 31.25 ppm a.i.): 60%
Efficacy in % found (Septoria tritici; Table 16, 15.625 ppm a.i.): 50%
Efficacy in % found (Septoria tritici; Table 16, 31.25 ppm a.i.): 75%
Efficacy in % found (Sphaerotheca fuliginea; [10]): 0%
Efficacy in % found (Venturia inaequalis; Table 22, 0.5 ppm a.i.): 53%

CC(C)Oc1cccc(NC(=O)c2ccccc2C(F)(F)F)c1 [F71, flutolanil]
pest or weed control at 100 ppm (Sphaerotheca fuliginea; [11]): 20%
Efficacy in % found (Botrytis cinerea; 250 ppm a.i.): 30%
pest or weed control at 50 ppm (Venturia inaequalis; [6]): 0%

N#Cc1c[nH]cc1-c1cccc2c1OC(F)(F)O2 [F248, fludioxonil]
pest or weed control at 100 ppm (Sphaerotheca fuliginea; Podosphaera fuliginea, 168 h, read-out: Efficacy in % found): 30%
Efficacy in % found (Botrytis cinerea; 2.5 ppm a.i.): 26%
pest or weed control at 50 ppm (Venturia inaequalis; [6]): 0%

propineb [F180]
Efficacy in % found (Phytophthora infestans; Table 11, 20 ppm a.i.): 8%
Efficacy in % found (Sphaerotheca fuliginea; [7]): 0%
Efficacy in % found (Venturia inaequalis; Table 23, 10 ppm a.i.): 81%

CSC1=N[C@@](C)(c2ccccc2)C(=O)N1Nc1ccccc1 [F114, fenamidone]
pest or weed control at 50 ppm (Alternaria solani; Alternaria solani, topical, 72 h, Table 3, 50 ppm a.i., read-out: Efficacy in % found): 62%
pest or weed control at 1 ppm (Phytophthora infestans; [5]): 41%
pest or weed control at 100 ppm (Sphaerotheca fuliginea; Podosphaera fuliginea, 168 h, Table 18, 100 ppm a.i., 7 days after inoculation, read-out: Efficacy in % found): 21%
pest or weed control at 50 ppm (Venturia inaequalis; [6]): 0%

CC(C)(C)C(O)(CCc1ccc(Cl)cc1)Cn1cncn1 (stereo not shown) [F47, tebuconazole]
pest or weed control at 2 ppm (Alternaria solani; [8]): 35%
Efficacy in % found ([1]; Table 6, 31.25 ppm a.i.): 78%
pest or weed control at 100 ppm (Phytophthora infestans; [5]): 15%
Efficacy in % found (Puccinia triticina; Table 13, 31.25 ppm a.i.): 30%
Efficacy in % found (Puccinia triticina; Table 13, 62.5 ppm a.i.): 60%
Efficacy in % found (Septoria tritici; Table 17, 125 ppm a.i.): 57%
pest or weed control at 1 ppm (Venturia inaequalis; [6]): 0%

COC(=O)N(OC)c1ccccc1COc1ccn(-c2ccc(Cl)cc2)n1 [F121, pyraclostrobin]
Efficacy in % found (Alternaria solani; Table 3, 2 ppm a.i.): 41%
Efficacy in % found (Pyrenophora teres; Table 15, 31.25 ppm a.i.): 80%
Efficacy in % found (Septoria tritici; Table 16, 31.25 ppm a.i.): 75%
Efficacy in % found (Sphaerotheca fuliginea; [10]): 0%
Efficacy in % found (Venturia inaequalis; Table 22, 0.5 ppm a.i.): 0%

CO/C=C(/C(=O)OC)c1ccccc1Oc1cc(Oc2ccccc2C#N)ncn1 [F107, azoxystrobin]
Efficacy in % found (Alternaria solani; Table 3, 2 ppm a.i.): 41%
Efficacy in % found ([1]; Table 5, 31.25 ppm a.i.): 10%
Efficacy in % found (Puccinia triticina; Table 12, 7.8125 ppm a.i.): 67%
Efficacy in % found (Pyrenophora teres; Table 15, 15.625 ppm a.i.): 60%
Efficacy in % found (Pyrenophora teres; Table 15, 31.25 ppm a.i.): 90%
Efficacy in % found (Septoria tritici; Table 16, 15.625 ppm a.i.): 13%
Efficacy in % found (Septoria tritici; Table 16, 31.25 ppm a.i.): 50%
Efficacy in % found (Sphaerotheca fuliginea; [10]): 37%
Efficacy in % found (Venturia inaequalis; Table 22, 0.5 ppm a.i.): 84%

Cc1nn(C)c(F)c1C(=O)Nc1ccccc1C(C)CC(C)C (stereo not shown) [F84, penflufen]
Efficacy in % found (Phytophthora infestans; Table 9, 100 ppm a.i.): 8%
Efficacy in % found (Puccinia triticina; Table 12, 31.25 ppm a.i.): 67%
Efficacy in % found (Pyrenophora teres; Table 15, 62.5 ppm a.i.): 70%
Efficacy in % found (Pyrenophora teres; Table 15, 125 ppm a.i.): 60%
Efficacy in % found (Sphaerotheca fuliginea; Table 19, 0.5 ppm a.i., 7 days after inoculation): 0%
Efficacy in % found (Venturia inaequalis; Table 21, 0.5 ppm a.i.): 0%

C#CCOc1ccc(CCNC(=O)C(OCC#C)c2ccc(Cl)cc2)cc1OC (stereo not shown) [F206, mandipropamid]
Efficacy in % found (Phytophthora infestans; Table 10, 0.25 ppm a.i.): 47%
Efficacy in % found (Sphaerotheca fuliginea; [4]): 13%

CNCC(=O)NC(CO)C(=O)NC1C(C(N)=O)OC(n2ccc(N)nc2=O)C(O)C1O [gougerotin, 1-(4-Amino-2-oxo-1(2H)-pyrimidinyl)-1,4-dideoxy-4-[[N—(N-methylglycyl)-D-seryl]amino]-b-D-glucopyranuronamide]
antibacterial activity [2]: weak antibacterial activity
parasiticidal action [3]: parasiticidal action

COCC(=O)N(c1c(C)cccc1C)[C@H](C)C(=O)OC [F242, metalaxyl-M]
Efficacy in % found (Sphaerotheca fuliginea; [4]): 13%
Efficacy in % found (Venturia inaequalis; Table 22, 50 ppm a.i.): 0%

N#Cc1c(Cl)c(Cl)c(Cl)c(C#N)c1Cl [F155, chlorothalonil]
pest or weed control at 20 ppm (Phytophthora infestans; [5]): 0%
Efficacy in % found (Pyrenophora teres; Table 14, 250 ppm a.i.): 50%
Efficacy in % found (Septoria tritici; Table 17, 125 ppm a.i.): 57%
pest or weed control at 10 ppm (Venturia inaequalis; [6]): 4%

Cn1c(=O)c2sc3c(=O)n(C)c(=O)c3sc2c1=O [F319, 2,6-dimethyl-1H,5H-[1,4]dithiino[2,3-c:5,6-c′]dipyrrole-1,3,5,7(2H,6H)-tetrone]
Efficacy in % found (Alternaria solani; Table 2, 50 ppm a.i.): 5%
Efficacy in % found (Phytophthora infestans; Table 11, 50 ppm a.i.): 5%
Efficacy in % found (Sphaerotheca fuliginea; Table 19, 50 ppm a.i., 7 days after inoculation): 0%
Efficacy in % found (Venturia inaequalis; Table 23, 25 ppm a.i.): 38%

OC(Cc1ccccc1Cl)(Cn1nc[nH]c1=S)C1(Cl)CC1 (stereo not shown) [F41, prothioconazole]
pest or weed control at 2 ppm (Alternaria solani; [8]): 0%
pest or weed control at 100 ppm (Phytophthora infestans; [5]): 45%
pest or weed control at 1 ppm (Sphaerotheca fuliginea; [9]): 43%
pest or weed control at 1 ppm (Venturia inaequalis; [6]): 0%

N#Cc1ccccc1NC(=O)c1snc(Cl)c1Cl [F187, isotianil]
Efficacy in % found (Alternaria solani; Table 4, 50 ppm a.i.): 18%
Efficacy in % found (Septoria tritici; Table 17, 250 ppm a.i.): 29%
Efficacy in % found (Septoria tritici; Table 17, 500 ppm a.i.): 29%
Efficacy in % found (Sphaerotheca fuliginea; Table 20, 100 ppm a.i., 7 days after inoculation): 20%
Efficacy in % found (Botrytis cinerea; 125 ppm a.i.): 40%
Efficacy in % found (Venturia inaequalis; Table 21, 50 ppm a.i.): 0%

CCCN(CC)CC1COC2(CCC(C(C)(C)C)CC2)O1 (stereo not shown) [F46, spiroxamine]
pest or weed control at 50 ppm (Alternaria solani; [12]): 46%
Efficacy in % found ([1]; Table 6, 125 ppm a.i.): 11%
pest or weed control at 100 ppm (Sphaerotheca fuliginea; [11]): 30%
Efficacy in % found (Botrytis cinerea; 100 ppm a.i.): 14%
pest or weed control at 50 ppm (Venturia inaequalis; [6]): 0%

CC1(C(=O)Nc2ccc(O)c(Cl)c2Cl)CCCCC1 [F16, fenhexamid]
pest or weed control at 50 ppm (Alternaria solani; [12]): 50%
pest or weed control at 100 ppm (Phytophthora infestans; [5]): 0%
pest or weed control at 100 ppm (Sphaerotheca fuliginea; [11]): 0%
pest or weed control at 25 ppm (Venturia inaequalis; [6]): 0%
